Measurements as given in patent US8183213B2, “Combination therapy comprising glucose reabsorption inhibitors and retinoid-X receptor modulators” (Ortho McNeil Pharmaceutical, Inc., priority 2001, dated 2012).
Read-outs that look alike come from different tables or passages of the source.

What was measured:
db/db mice [1] = assay: Fed plasma triglycerides after oral dosing of MX-6054 +/- T-1095 (Example 5); type: in vivo; details: ± SEM
Procedure: (§1) To examine the effect of T-1095 in combination with a RXR agonist, male db/db mice (7 weeks of age/Jackson Labs, ME) were treated daily for 11 days with vehicle (0.5% methylcellulose), an RXR agonist such as MX-6054 (0.1 mg/kg-10 mg/kg), T-1095 (100 mg/kg), or MX-6054 plus T-1095. Mice (n=8 animals/group) received the test compounds or vehicle by oral gavage in a volume of 10 ml/kg of body weight. Body weight was recorded on day 1, prior to dosing, and days 4, 8 and 11. Two hours after the final dose (day 11), mice were weighed and anesthetized with CO2/O2 (70:30). Mice were then bled by retro-orbital sinus puncture into 2 mL heparinized polypropylene tubes on ice. Livers were excised, weighed and frozen.
(§2) Plasma samples were then assayed for glucose and triglycerides using Trinder reagent (Sigma Diagnostics) and GPO-Trinder (Sigma Diagnostics).

[2] = Liver weight after oral dosing of MX-6054 +/- T-1095 (Example 5); type: in vivo; details: db/db mice; for liver weight (title: Effects on body and liver weights): oral dosing (title: 35 day), in g (unit assumed)
[3] = Body weight after oral dosing of MX-6054 +/- T-1095 (Example 5); type: in vivo; details: oral dosing (title: 35 day), db/db mice
Procedure: To examine the effect of T-1095 in combination with a RXR agonist, male db/db mice (7 weeks of age/Jackson Labs, […]), an RXR agonist such as MX-6054 (0.1 mg/kg-10 mg/kg), T-1095 (100 mg/kg), or MX-6054 plus T-1095. Mice (n=8 animals/group) received the test compounds or vehicle by oral gavage in a volume of 10 ml/kg of body weight. […] […] Mice were then bled by retro-orbital sinus puncture into 2 mL heparinized polypropylene tubes on ice. Livers were excised, weighed and frozen.

db/db mice [4] = assay: Fed plasma glucose after oral dosing of MX-6054 +/- T-1095 (Example 5); type: in vivo; details: ± SEM
Procedure: as §1, §2

[5] = tested on: diabetic rodent models (STZ-induced diabetic rat, yellow KK mice, db/db mice, Zucker Diabetic Fatty rats and GK rats); details: cited from earlier work
SGLT-2 in the kidney = biological target: T1, SGLT-2 in the kidney (Homo sapiens, UniProt P31639); details: compared with T-1095; cited from earlier work
T1 sequence (P31639 1-672): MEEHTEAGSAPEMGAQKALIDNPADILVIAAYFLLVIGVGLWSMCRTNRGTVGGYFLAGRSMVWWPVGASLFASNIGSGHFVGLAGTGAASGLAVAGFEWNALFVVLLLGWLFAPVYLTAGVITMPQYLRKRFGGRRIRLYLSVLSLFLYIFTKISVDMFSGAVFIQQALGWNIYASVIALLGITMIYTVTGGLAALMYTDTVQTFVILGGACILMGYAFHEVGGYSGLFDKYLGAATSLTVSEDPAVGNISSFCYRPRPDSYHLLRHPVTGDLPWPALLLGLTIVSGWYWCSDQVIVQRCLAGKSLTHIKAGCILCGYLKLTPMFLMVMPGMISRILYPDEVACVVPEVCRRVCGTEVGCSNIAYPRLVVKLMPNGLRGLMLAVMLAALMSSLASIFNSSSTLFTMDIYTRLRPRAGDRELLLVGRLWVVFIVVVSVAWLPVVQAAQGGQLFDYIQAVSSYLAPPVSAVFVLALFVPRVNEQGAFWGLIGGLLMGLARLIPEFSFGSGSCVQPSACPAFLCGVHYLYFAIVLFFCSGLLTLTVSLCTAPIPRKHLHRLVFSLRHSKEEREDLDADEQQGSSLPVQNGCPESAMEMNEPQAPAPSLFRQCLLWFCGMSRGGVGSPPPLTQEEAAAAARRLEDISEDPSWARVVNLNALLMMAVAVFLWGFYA

SGLT in the kidney = details: cited from earlier work
[6] = tested on: renal tubular glucose reabsorption; details: subcutaneous daily administration; cited from earlier work
[7] = tested on: Na^+-glucose co-transporters located in chorionic membrane of the intestine and the kidney; details: cited from earlier work
SGLT2 (SAAT1) = details: Kidney (S3), cited from earlier work; for Km: for D-glucose
SGLT1 = biological target: T2, SGLT1 (Homo sapiens, UniProt P13866); details: Kidney (S1, S3), cited from earlier work; for Km: for D-glucose
T2 sequence (P13866 1-664): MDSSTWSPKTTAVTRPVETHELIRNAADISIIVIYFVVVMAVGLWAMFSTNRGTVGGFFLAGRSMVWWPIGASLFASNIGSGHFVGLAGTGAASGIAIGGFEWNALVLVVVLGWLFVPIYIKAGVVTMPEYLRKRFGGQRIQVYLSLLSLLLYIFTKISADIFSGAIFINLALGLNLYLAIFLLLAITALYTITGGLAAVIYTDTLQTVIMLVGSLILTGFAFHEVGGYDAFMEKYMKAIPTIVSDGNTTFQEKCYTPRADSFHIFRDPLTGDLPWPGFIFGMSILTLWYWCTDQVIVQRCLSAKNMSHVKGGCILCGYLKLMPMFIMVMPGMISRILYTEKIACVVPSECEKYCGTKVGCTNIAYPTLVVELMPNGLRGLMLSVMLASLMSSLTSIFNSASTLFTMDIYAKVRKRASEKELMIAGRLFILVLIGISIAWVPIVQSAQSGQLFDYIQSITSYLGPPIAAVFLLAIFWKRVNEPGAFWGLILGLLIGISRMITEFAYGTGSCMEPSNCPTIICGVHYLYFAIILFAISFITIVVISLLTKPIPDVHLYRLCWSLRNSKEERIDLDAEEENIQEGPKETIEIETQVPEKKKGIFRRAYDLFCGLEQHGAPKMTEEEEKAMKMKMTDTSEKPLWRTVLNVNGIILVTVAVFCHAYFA

[8] = 100 mpk T-1095, 11 day oral dosing
[9] = 0.1 mpk MX-6054, 11 day oral dosing
[10] = 0.3 mpk MX-6054, 11 day oral dosing
[11] = 1 mpk MX-6054, 11 day oral dosing
[12] = 3 mpk MX-6054, 11 day oral dosing
[13] = 10 mpk MX-6054, 11 day oral dosing

Question: What does the source list for `COC(=O)OCC1OC(Oc2cc(C)cc(O)c2C(=O)CCc2ccc3occc3c2)C(O)C(O)C1O` (centres unmarked) [T-1095]?
Answer: Triglycerides (db/db mice [1]; [8]): 196 ± 11 mg/dL; liver weight (title: Effects on body and liver weights) ([2]; 100 mpk T-1095): 1.64 ± 0.07; MX-6054-induced increase in liver weight ([2]; co-administration of T-1095 with MX-6054): prevented; body weight (title: Effects on body and liver weights) ([3]; 100 mpk T-1095): 0.7 ± 0.3; Glucose (db/db mice [4]; [8]): 201 ± 9 mg/dL; adding weight, infection in the urinary tracts, electrolyte imbalance in plasma, changes in food intake, acute hypoglycemic shock, pathological changes in the kidney ([5]; during treatment with T-1095): no observed sign; oral glucose tolerance test and hyperinsulinemic euglycemic clamp studies ([5]; in vivo, po): improvement of glucose tolerance and the reduction of insulin resistance; elevated blood glucose levels ([5]; oral administration, rodent models of IDDM and NIDDM): suppress elevated blood glucose levels; fed and fasting blood glucose levels and HbA1c ([5]; treatment for 3 weeks to 6 months, diabetic rodent models): reduced; hyperinsulinemia, hypertriglyceridemia, and the development of microalbuminuria ([5]; yellow KK mice and other diabetic mice models): decrease

Question: For `Cc1cc(O)c(C(=O)CCc2ccc3occc3c2)c(OC2OC(CO)C(O)C(O)C2O)c1` (centres unmarked) [T-1095A], which “substrate for the inhibition of SGLT-2 in the kidney” value (SGLT-2 in the kidney) is on record?
Answer: Its value is “better substrate”.

Question: And the “inhibition of SGLT in the kidney” value (SGLT in the kidney)?
Answer: The value was “selective and potent inhibitor”.

Question: Which results are given for `Cc1cc2c(cc1-c1cc(/C=C3\SC(=O)NC3=O)ccc1OC(F)(F)F)C(C)(C)CCC2(C)C` [MX-6054, 2,4-thiazolidinedione, 5-[[3-(5,6,7,8-tetrahydro-3,5,5,8,8-pentamethyl-2-naphthalenyl)-4-(trifluoromethoxy)phenyl]methylene]-, (5Z)-]?
Answer: Triglycerides (db/db mice [1]; [9]): 260 ± 24 mg/dL; Triglycerides (db/db mice [1]; [10]): 262 ± 25 mg/dL; Triglycerides (db/db mice [1]; [11]): 259 ± 28 mg/dL; Triglycerides (db/db mice [1]; [12]): 206 ± 24 mg/dL; Triglycerides (db/db mice [1]; [13]): 189 ± 11 mg/dL; liver weight (title: Effects on body and liver weights) ([2]; 0.1 mpk MX-6054): 1.76 ± 0.11; liver weight (title: Effects on body and liver weights) ([2]; 0.3 mpk MX-6054): 1.93 ± 0.09; liver weight (title: Effects on body and liver weights) ([2]; 1 mpk MX-6054): 1.98 ± 0.09; liver weight (title: Effects on body and liver weights) ([2]; 3 mpk MX-6054): 1.89 ± 0.09; liver weight (title: Effects on body and liver weights) ([2]; 10 mpk MX-6054): 2.38 ± 0.16; liver weight, effect of treatment in words ([2]; treatment with MX-6054): significant increase; body weight (title: Effects on body and liver weights) ([3]; 0.1 mpk MX-6054): −0.7 ± 0.7; body weight (title: Effects on body and liver weights) ([3]; 0.3 mpk MX-6054): 0.2 ± 0.4; body weight (title: Effects on body and liver weights) ([3]; 1 mpk MX-6054): 0.6 ± 0.6; body weight (title: Effects on body and liver weights) ([3]; 3 mpk MX-6054): −0.8 ± 1.3; body weight (title: Effects on body and liver weights) ([3]; 10 mpk MX-6054): 2.5 ± 1.1; Glucose (db/db mice [4]; [9]): 357 ± 46 mg/dL; Glucose (db/db mice [4]; [10]): 342 ± 41 mg/dL; Glucose (db/db mice [4]; [11]): 406 ± 57 mg/dL; Glucose (db/db mice [4]; [12]): 255 ± 42 mg/dL; Glucose (db/db mice [4]; [13]): 224 ± 13 mg/dL

Question: Which “glucose level in a plasma” value [6] does the source give for `O=C(CCc1ccc(O)cc1)c1c(O)cc(O)cc1O[C@@H]1O[C@H](CO)[C@@H](O)[C@H](O)[C@H]1O` [phlorizin] here?
Answer: Its value is “controlled at a normal level for a long time”.

Question: What about the “Na^+-glucose co-transporter activity” value [7] of the same compound?
Answer: The value was “inhibits”.

Question: Which Km (SGLT2 (SAAT1); read-out: Km In vivo) does the source give for `O=C[C@H](O)[C@@H](O)[C@H](O)[C@H](O)CO` [D-glucose] here?
Answer: Its Km is 6000 µM.

Question: And the Km (SGLT2 (SAAT1); read-out: Km in vitro)?
Answer: The Km was 1640 µM.

Question: What about the “TmG in vitro (Maximal transport rate)” value (SGLT2 (SAAT1)) of the same compound?
Answer: The value was 83 pmol/min/mm.

Question: What about the Km (SGLT1; read-out: Km In vivo) of the same compound?
Answer: The Km was 300 µM.

Question: What about the Km (SGLT1; read-out: Km in vitro) of the same compound?
Answer: Its Km is 390 µM.

Question: What about the “TmG in vitro (Maximal transport rate)” value (SGLT1) of the same compound?
Answer: The value was 7.9 pmol/min/mm.
